Source: patent publication US20250326765A1, “PDE4B INHIBITOR AND USE THEREOF” (XIZANG HAISCO PHARMACEUTICAL CO., LTD., priority 2022, published 2025)

Experiments:
[1] = molecular target: T1, hERG potassium ion channel (Homo sapiens, UniProt Q12809); assay: Test for hERG potassium ion channel (manual patch-clamp, CHO cells); assay type: cell-based; conditions: CHO cells stably expressing hERG, whole cell patch-clamp; read-out: IC50, inhibition of hERG potassium channel current
T1 construct: expressed in transfected cells
Source text: Experimental Platform: Electrophysiological Manual Patch-Clamp System
Cell line: Chinese hamster ovary (CHO) cell line stably expressing hERG potassium ion channel
Experimental method: CHO (Chinese Hamster Ovary) cells stably expressing hERG potassium channel were subjected to a whole cell patch-clamp technique to record the hERG potassium channel current at room temperature. The glass microelectrode was made of a glass electrode blank (BF150-86-10, Sutter) by a puller. The tip resistance after filling the liquid in the electrode was about 2-5 MQ. The glass microelectrode can be connected to the patch-clamp amplifier by inserting the glass microelectrode into an amplifier probe. The clamping voltage and data recording were controlled and recorded by the pClamp 10 software through a computer. The sampling frequency was 10 kHz, and the filtering frequency was 2 kHz. After the whole cell records were obtained, the cells were clamped at −80 mV, and the step voltage that induced the hERG potassium current (IhERG) was depolarized from −80 mV to +20 mV for 2 s, then repolarized to −50 mV, and returned to −80 mV after 1 s. This voltage stimulation was given every 10 s, and the administration process was started after the hERG potassium current was confirmed to be stable (at least 1 minute). The compound was administered for at least 1 minute at each test concentration, and at least 2 cells (n: 2) were tested at each concentration.
Data processing: Data analysis processing was carried out by using pClamp 10, GraphPad Prism 5, and Excel software. The degree of inhibition on the hERG potassium current (peak value of hERG tail current induced at −50 mV) at different compound concentrations was calculated by the following formula:
[formula] • where Inhibition % represents the percentage inhibition of the compound on the hERG potassium current, and I and Io represent the amplitude of the hERG potassium current after and before administration, respectively.
Compound IC50 was calculated using GraphPad Prism 5 software by fitting according to the following equation: […]

PDE4D2 = molecular target: T2, PDE4D2 (Homo sapiens, UniProt Q08499); assay: Effect of compounds on PDE4D2 activity (fluorescence polarization kit); assay type: biochemical; conditions: class symbols
T2 construct: purchased BPS Bioscience 60345
Procedure: The effect of compounds on PDE4D2 activity was detected by a fluorescence polarization kit (BPS Bioscience, Catalog #60345). During the reaction, 12.5 μL of 0.272 ng/well of an enzyme (final concentration: 0.068 ng/well) and 12.5 μL of the compound diluted in a gradient manner (DMSO concentration: 4%) were first pre-incubated at room temperature for 15 minutes, the same volume of the enzyme at the same concentration and 12.5 μL of PDE buffer containing 4% DMSO were added to the positive control well, and 25 μL of PDE buffer containing 2% DMSO was added to the negative control well. After completion, 25 μL of […] FAM-Cyclic-3′,5′-AMP (final concentration: […]) was added to each well, fully mixed, and then incubated at room temperature with slow shaking for 30 minutes. The Binding Agent was diluted with the Binding Agent Diluent (cAMP) at a ratio of 1:100 for later use, 100 μl/well of the Binding Agent dilution was taken and added to all wells of the test plate and incubated at room temperature with slow shaking for 1 hour.
After the incubation was complete, BMG LRBTECH microplate reader was used for FP detection, with Excitation at 485 nm and Emission at 520 nm. FP was usually represented by mP value.
[formula] • I∥ (S520): fluorescence intensity in parallel direction • I⊥ (P520): fluorescence intensity in perpendicular direction • G: G factor=1
(§1) [formula] • mP(sample): mP of the test compound in a reaction well • mP(negative control): mP in the negative control well • mP(positive control): mP in the positive control well
According to the calculated inhibition rate at each concentration, the IC50 value of each compound was calculated by GraphPad Prism 8 software.

PDE4B1 = molecular target: T3, PDE4B1 (Homo sapiens, UniProt Q07343); assay: Effect of compounds on PDE4B1 activity (IMAP fluorescence polarization kit); assay type: biochemical; conditions: class symbols
T3 construct: purchased BPS 60041
Procedure: The IMAP Reaction Buffer containing 0.1% BSA (5×) in the kit was diluted into a 1-fold reaction buffer containing 1 mM DTT. 0.12 nM PDE4B1 (BPS, Cat #60041) was added to the 1-fold reaction buffer to form a 2-fold enzyme solution. 10 μL of the 2-fold enzyme solution was added to wells of a 384-well reaction plate. For the negative control well, 10 μL of the 1-fold reaction buffer was used instead of the enzyme solution. Centrifugation at 1000 rpm for 1 minute and incubation at room temperature for 15 minutes were carried out. 0.2 uM FAM-labeled cAMP (FAM-cAMP, Molecular Device, Cat #R7506) was added to the 1-fold reaction buffer to form a 2-fold substrate solution. 10 μL of the 2-fold substrate solution was added to each well of the 384-well reaction plate. Centrifugation at 1000 rpm for 1 minute was carried out. A reaction was carried out at room temperature for 20 minutes. IMAP Progressive Binding Buffer A (5×), IMAP Progressive Binding Buffer B (5×), and IMAP Progressive Binding Reagent (provided by IMAP FP IPP Explorer Kit) were prepared into a reaction stop solution according to the instructions for use. 60 μL of an […] reaction stop solution was added to each well of the 384-well reaction plate to stop the reaction, and the reaction product was centrifuged at 1000 rpm for 1 minute. Incubation at room temperature in the dark for 60 minutes was carried out. The mP values (Ex480/Em535 (s), Em535 (p)) were read by a microplate reader (Envision).
FP was usually represented by mP value. mP value for FP measurement=1000*(S−G*P)/(S+G*P) • S: fluorescence intensity in parallel direction • P: fluorescence intensity in perpendicular direction • G: G factor=1
as §1
According to the calculated inhibition rate at each concentration, the IC50 value of each compound was calculated by XLFit excel add-in version 5.4.0.8 software.
Y=Bottom+(Top−Bottom)/(1+(IC50/X)^HillSlope) Fitting formula: […]

T1 sequence (Q12809 whole entry): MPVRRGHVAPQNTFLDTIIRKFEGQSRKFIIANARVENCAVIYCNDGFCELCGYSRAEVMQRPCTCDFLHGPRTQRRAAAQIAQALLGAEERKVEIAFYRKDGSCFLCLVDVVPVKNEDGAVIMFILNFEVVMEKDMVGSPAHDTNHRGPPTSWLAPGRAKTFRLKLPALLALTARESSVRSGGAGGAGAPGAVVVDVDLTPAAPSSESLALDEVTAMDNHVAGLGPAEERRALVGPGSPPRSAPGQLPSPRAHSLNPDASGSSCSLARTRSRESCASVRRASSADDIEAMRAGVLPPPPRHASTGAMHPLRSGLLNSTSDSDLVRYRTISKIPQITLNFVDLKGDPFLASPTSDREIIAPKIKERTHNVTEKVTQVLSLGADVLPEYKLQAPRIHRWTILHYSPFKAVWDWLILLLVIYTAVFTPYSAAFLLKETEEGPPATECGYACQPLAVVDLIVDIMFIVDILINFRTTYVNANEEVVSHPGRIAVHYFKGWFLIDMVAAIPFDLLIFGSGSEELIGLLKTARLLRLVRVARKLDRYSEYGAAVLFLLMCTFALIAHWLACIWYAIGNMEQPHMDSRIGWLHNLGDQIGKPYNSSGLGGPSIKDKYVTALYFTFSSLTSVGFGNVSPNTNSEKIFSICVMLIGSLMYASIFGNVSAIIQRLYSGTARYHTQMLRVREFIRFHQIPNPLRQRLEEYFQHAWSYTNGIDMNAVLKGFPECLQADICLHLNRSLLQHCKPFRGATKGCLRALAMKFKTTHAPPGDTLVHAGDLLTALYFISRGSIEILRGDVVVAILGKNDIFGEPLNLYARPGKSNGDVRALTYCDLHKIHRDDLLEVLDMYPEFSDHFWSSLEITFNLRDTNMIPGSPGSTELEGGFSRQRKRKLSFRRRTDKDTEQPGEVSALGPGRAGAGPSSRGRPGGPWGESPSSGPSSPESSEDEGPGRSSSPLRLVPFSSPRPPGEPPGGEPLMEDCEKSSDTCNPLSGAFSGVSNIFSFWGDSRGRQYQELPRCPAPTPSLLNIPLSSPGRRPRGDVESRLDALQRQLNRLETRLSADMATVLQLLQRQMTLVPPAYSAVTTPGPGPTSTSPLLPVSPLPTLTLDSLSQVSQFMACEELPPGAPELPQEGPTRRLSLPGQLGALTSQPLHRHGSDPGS
T2 sequence (Q08499 303-809): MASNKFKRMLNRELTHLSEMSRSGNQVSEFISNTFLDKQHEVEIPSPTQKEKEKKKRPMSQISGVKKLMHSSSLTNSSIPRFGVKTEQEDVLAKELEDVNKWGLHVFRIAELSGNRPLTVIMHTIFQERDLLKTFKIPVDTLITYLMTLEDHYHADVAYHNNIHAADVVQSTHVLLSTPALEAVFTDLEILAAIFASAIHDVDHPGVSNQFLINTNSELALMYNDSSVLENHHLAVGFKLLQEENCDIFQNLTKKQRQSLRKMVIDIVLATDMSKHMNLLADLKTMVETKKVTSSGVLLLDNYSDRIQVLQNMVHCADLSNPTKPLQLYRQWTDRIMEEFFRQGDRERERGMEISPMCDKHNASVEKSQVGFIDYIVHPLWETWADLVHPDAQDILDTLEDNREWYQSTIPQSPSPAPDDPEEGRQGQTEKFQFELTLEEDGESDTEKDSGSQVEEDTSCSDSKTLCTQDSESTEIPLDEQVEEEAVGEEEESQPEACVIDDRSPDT
T3 sequence (Q07343 whole entry): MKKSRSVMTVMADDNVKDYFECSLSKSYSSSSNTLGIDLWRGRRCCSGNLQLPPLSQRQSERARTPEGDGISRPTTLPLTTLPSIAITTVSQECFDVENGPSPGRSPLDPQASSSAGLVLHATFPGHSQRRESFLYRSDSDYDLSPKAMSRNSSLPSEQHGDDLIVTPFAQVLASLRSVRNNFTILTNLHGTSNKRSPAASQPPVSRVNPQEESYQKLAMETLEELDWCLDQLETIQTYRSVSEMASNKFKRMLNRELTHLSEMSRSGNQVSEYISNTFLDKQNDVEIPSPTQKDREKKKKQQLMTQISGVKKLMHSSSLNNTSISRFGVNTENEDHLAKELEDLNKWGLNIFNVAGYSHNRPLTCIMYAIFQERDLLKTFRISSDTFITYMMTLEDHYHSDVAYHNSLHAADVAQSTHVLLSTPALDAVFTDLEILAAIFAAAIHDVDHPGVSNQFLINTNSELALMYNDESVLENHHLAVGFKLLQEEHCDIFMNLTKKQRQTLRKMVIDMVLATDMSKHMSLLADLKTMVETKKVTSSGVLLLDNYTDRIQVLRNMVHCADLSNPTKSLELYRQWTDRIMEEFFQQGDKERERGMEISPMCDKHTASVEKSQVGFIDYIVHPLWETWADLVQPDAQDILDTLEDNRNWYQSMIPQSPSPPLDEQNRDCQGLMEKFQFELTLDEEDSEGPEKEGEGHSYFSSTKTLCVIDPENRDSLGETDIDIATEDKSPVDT

`[O-][S@+]1CCc2nc(N3CCC=C(c4ncc(Cl)cn4)CC3)nc(NC3(CO)CCC3)c21` [Compound 34] showed an IC50 [1] of 13.6 µM, an IC50 (PDE4D2) of less than 0.01 µM and an IC50 (PDE4B1) of less than 0.01 µM.
